Tested on: narcoticized male cats
Experiment: Decrease in arterial blood pressure after intravenous administration, under i.v. infusion of angiotensin II
Assay type: in vivo, cat
Conditions: single dose, angiotensin II infusion 0.5 μg/kg/min, average of 6 experiments
Method: The antagonistic activity of the compounds having the formula I was tested on narcoticized male cats. The blood pressure was measured on the cervical artery. The tests were performed by introducing a Hypertension (CIBA) infusion into a lateral femoral vane at a speed of 0.5 μg/kg/min. When the increase in blood pressure was stabilized, the aqueous, physiological or carrier-containing solutions of the test compounds and Saralasin were administered in a single dose, intravenously or subcutaneously, and the decrease in blood pressure was measured. In the Table I the decrease in the arterial blood pressure under the influence of an intravenous administration of the test compounds is illustrated. For comparison Saralasin is used. The data set forth in the Table 1 were obtained by calculating the average of the results of 6 experiments. The margins of error indicate the scatter of the main value.

CNCC(=O)N[C@@H](CCCN=C(N)N)C(=O)N[C@H](C(=O)N[C@@H](Cc1ccc(O)cc1)C(=O)N[C@H](C(=O)N[C@@H](Cc1cnc[nH]1)C(=O)N1CCC[C@H]1C(=O)N[C@@H](C)C(=O)O)C(C)C)C(C)C [Saralasin]
Decrease in blood pressure (mmHg) after administration of 10 μg/kg i.v. doses: -41±2.5 mmHg

Source: patent US4179433A, “Angiotensin II antagonist peptides containing an alpha-aminooxyacid in the position-1” (Richter Gedeon Vegyeszeti Gyar Rt., priority 1977, dated 1979)
